Laboratory results taken from patent US10709724B2, “Methods of treating mitochondrial dysfunction” (Ecole Polytechnique Federale de Lausanne (EPFL), priority 2011, dated 2020).

Legend:
C57Bl/6J male mice = assay: PJ34 treatment of mice (5 days); type: in vivo; conditions: 10 mg/kg i.p. twice a day
Description: Animal Experiments. Male PARP-1^+/+ and PARP-1^−/− mice on a pure C57Bl/6J background (Menissier-de Murcia et al., 1997) were used. Mice were housed separately, had ad libitum access to water and standard rodent chow (10 kcal % of fat, Safe, Augy, France) or to a high calorie, high fat diet (60 kcal % of fat, Research. Diets, New Brunswick, N.J., USA), and were kept under a 12 h dark-light cycle. In other animal experiments, 8 weeks-old male C57Bl/6J mice were purchased from Charles River and powder chow (D12450B) and high fat (D12492) diets were from Research Diets Inc (New Brunswick, N.J., USA). 80 ml of water per kg of powder CD were used to make food pellets. 40 ml of water per kg of powder HFD were used to make food pellets. For NR, NMN and NA supplemented diets, the appropriate amount of these compounds was added to the water used to create the pellets, taking into account the differences in the daily intake of each diet. Mice were housed separately, had ad libitum access to water and food and were kept under a 12 h dark-light cycle. Mice were fed with homemade pellets from 10 weeks of age. To make the pellets, the powder food was mixed with water (vehicle) or with NR. All animal experiments were carried out according to local national and EU ethical guidelines. To monitor body weight, mice were weighed and the food consumption was measured each week on the same day. In case of PJ34 treatment, mice received each 12 h (at 7:00 and 19:00) 10 mg/kg PJ34 by intraperitoneal injection for 5 continuous days. In all studies animals were killed (at 14:00) either after CO2 inhalation or cervical dislocation after 6 h of fasting (starting at 8:00), and tissues were collected and processed as specified below. Oral glucose tolerance test, intraperitoneal insulin tolerance test, free fatty acid (FFA) and triglycerides were determined as described (Lagouge et al., 2006). Plasma insulin and was determined in heparinized plasma samples using specific ELISA kits (Mercodia). Blood samples were collected in heparinized tubes and plasma was isolated after centrifugation. Plasma parameters were measured using a Cobas c111 (Roche Diagnostics). Thermoadaptation was performed as described (Lagouge et al., 2006). We measured O2 consumption, CO2 production, and spontaneous locomotor activity in an open circuit indirect calorimetry system (Sabre systems, Las Vegas, Nev., USA) over 24-48 has described (Dali-Youcef et al., 2007; Lagouge et al., 2006; Watanabe et al., 2006). […] The respiratory quotient was the ratio of CO2 production over O2 consumption. During actimetry, beamline crossings were summarized each 15 minutes. […] Euglycemic-hyperinsulinemic clamps were performed in PARP-1^−/− and ^+/+ male mice (n=4 mice per genotype; age=4 months) exactly as previously described (Feige et al, 2008).
mRNA and mtDNA Analysis. Total RNA was prepared using TRIzol (Invitrogen) according to the manufacturer's instructions. RNA was treated with DNase, and 2 μg of RNA was used for reverse transcription (RT). cDNA was purified on QIAquick PCR cleanup columns (Qiagen, Valencia, Calif., USA). 50× diluted cDNA was used for RT-quantitative PCR (RT-VCR) VCR) reactions (Bai et al., 2007). The RT-qPCR reactions were performed using the Light-Cycler system (Roche Applied Science) and a qPCR Supermix (Qiagen) with the primers for mice summarized in Table 1 and 4, and with the primers for worms summarized on Table 7. mtDNA quantification was performed as described (Lagouge et al., 2006) with the primers indicated in Table 2 and 5.
Immunoprecipitation, SDS-PAGE, Western Blotting. Cells were lysed in lysis buffer (50 mM Tris, […], EDTA 1 mM, NP40 1%, nicotinamide 5 mM, Na-butyrate 1 in M, protease inhibitors pH7.4). Proteins were separated by SDS-PAGE and transferred onto nitrocellulose membranes. The origin of the primary and secondary antibodies used can be found as supplemental experimental procedures. […]

SIRT1 = SIRT1 activity (PGC-1α acetylation) and SIRT1 protein in C2C12 myotubes; type: cell-based
Description: Immunoprecipitation, SDS-PAGE, Western Blotting. Cells were lysed in lysis buffer (50 mM Tris, […], EDTA 1 mM, NP40 1%, nicotinamide 5 mM, Na-butyrate 1 in M, protease inhibitors pH7.4). Proteins were separated by SDS-PAGE and transferred onto nitrocellulose membranes. The origin of the primary and secondary antibodies used can be found as supplemental experimental procedures. Reactions were developed by enhanced chemiluminescence (Amersham, Little Chalfont, UK), PGC-1α, FOXO1 and Ndufa9 acetylation levels were analyzed by immunoprecipitation from cellular or nuclear lysates of tissues with anti-PGC-1α (Millipore), anti-FOXO1 (Cell Signaling, Danvers, Mass., USA) and anti-Ndufa9 (Abcam) antibody followed by Western blot using an acetyl-lysine antibody (Cell Signaling) that was normalized to total PGC-1a/FOXO1/Ndufa9 levels (Lagouge et al., 2006; Rodgers et al., 2005). In HEK293T cells HA-tagged PGC-1α was overexpressed and was immunoprecipitated using an anti-HA. In C2C12 myotubes, FLAG-HA tagged PGC-1α was introduced through adenoviral delivery 2 days before treatments, then IP was performed using anti-FLAG antibody and samples were processed as described. All blots were quantified by densitometry using ImageJ software. Poly(ADP-Ribose) detection was performed as previously described with slight modifications (Bai et al., PARP-1 inhibition increases mitochondrial metabolism through SIRT1 activation. Cell Metab 13, 461-468. (2011)) Briefly, PAR was detected by using a monoclonal anti-PAR antibody (Alexis, Lausanne Switzerland) by Western blotting of total protein lysates, using either […] of total worm protein lysates, […] of liver protein lysate or 200 g of muscle total protein extracts. PGC-1 acetylation was determined using PGC-1 immunoprecipitates from 2 mg of protein extracts, as described in Canto et al. (Canto et al., AMPK regulates energy expenditure by modulating NAD+ metabolism and SIRT1 activity. Nature 458, 1056 (2009)).

CN(C)CC(=O)Nc1ccc2[nH]c(=O)c3ccccc3c2c1 [PJ34]
Dio2 mRNA in BAT (C57Bl/6J male mice): significantly induced | Myoglobin mRNA levels in muscle (C57Bl/6J male mice): increase in Myoglobin mRNA levels | NAD+ levels in BAT and muscle (C57Bl/6J male mice): edged up in PJ34-treated animals, even though the increase was only statistically significant in muscle | PARP activity in BAT and muscle (C57Bl/6J male mice): robustly decrease PARP activity | PGC-1α acetylation levels in BAT and muscle (C57Bl/6J male mice): reduced PGC-1α acetylation levels | mitochondrial gene expression in BAT and muscle (Ndufa2, Ndufa5, UCP2, UCP3) (C57Bl/6J male mice): tendency to a higher expression of a number of mitochondrial genes | triglycerides (C57Bl/6J male mice; vehicle 1.21±0.08, p=0.08): 1.11 ± 0.04 mM | free fatty acid levels (C57Bl/6J male mice; vehicle 1.59±0.06, p=0.03): 1.44±0.03 mEq/L | blood glucose (C57Bl/6J male mice; vehicle 9.94±0.28, p=0.05): 9.19 ± 0.58 mM | SIRT1 protein levels (SIRT1; 24 hrs): did not change SIRT1 protein levels | PGC-1α acetylation (SIRT1 activation) (SIRT1; 24 hrs, dose-dependent (FIG. 6F)): deacetylation of PGC-1α | SIRT1 function (PGC-1α acetylation) during H2O2 treatment (SIRT1; H2O2 500 μM, 6 hrs, PJ34 1 μM): enhanced SIRT1 function | SIRT1 protein levels during H2O2 treatment (SIRT1; H2O2 500 μM, 6 hrs, PJ34 1 μM): SIRT1 protein levels did not change
